In brackets after ≈: the same amount, converted by molar mass.
Legend:
Format in all cases: functional
[1] = system: Candida albicans; experiment: Antifungal activity against Candida albicans ATCC 2091 assessed as growth inhibition by M7-A6 method
[2] = system: Micrococcus luteus; experiment: Antibacterial activity against Micrococcus luteus ATCC 10240 assessed as growth inhibition by M7-A6 method
[3] = system: Bacillus subtilis; experiment: Antibacterial activity against Bacillus subtilis ATCC 6633 assessed as growth inhibition by M7-A6 method
[4] = system: Candida parapsilosis; experiment: Antifungal activity against Candida parapsilosis ATCC 22019 assessed as growth inhibition by M7-A6 method; conditions: Lodderomyces parapsilosis
[5] = system: Micrococcus luteus; experiment: Antibacterial activity against Micrococcus luteus ATCC 9341 assessed as growth inhibition by M7-A6 method
[6] = system: Pseudomonas aeruginosa; experiment: Antibacterial activity against Pseudomonas aeruginosa ATCC 9027 assessed as growth inhibition by M7-A6 method
[7] = system: Bacillus cereus; experiment: Antibacterial activity against Bacillus cereus ATCC 11778 assessed as growth inhibition by M7-A6 method
[8] = system: Escherichia coli; experiment: Antibacterial activity against Escherichia coli ATCC 8739 assessed as growth inhibition by M7-A6 method
[9] = system: Candida albicans; experiment: Antifungal activity against Candida albicans ATCC 10231 assessed as growth inhibition by M7-A6 method
[10] = system: Escherichia coli; experiment: Antibacterial activity against Escherichia coli ATCC 10536 assessed as growth inhibition by M7-A6 method
[11] = system: Staphylococcus aureus; experiment: Antibacterial activity against Staphylococcus aureus ATCC 6538 assessed as growth inhibition by M7-A6 method
[12] = system: Pseudomonas aeruginosa; experiment: Antibacterial activity against Pseudomonas aeruginosa ATCC 15442 assessed as growth inhibition by M7-A6 method
[13] = system: Staphylococcus aureus; experiment: Antibacterial activity against Staphylococcus aureus ATCC 6538P assessed as growth inhibition by M7-A6 method
[14] = Antifungal activity against Zygosaccharomyces rouxii ATCC 28253 assessed as growth inhibition by M7-A6 method
[15] = system: Saccharomyces cerevisiae; experiment: Antifungal activity against Saccharomyces cerevisiae ATCC 9763 assessed as growth inhibition by M7-A6 method
[16] = system: Aspergillus brasiliensis; experiment: Antifungal activity against Aspergillus brasiliensis ATCC 16404 assessed as growth inhibition by M7-A6 method
[17] = system: Staphylococcus aureus; experiment: Antibacterial activity against penicillin, erythromycin, amikacin, clindamycin, ciprofloxacin, methicillin-resistant Staphylococcus aureus 572/12 assessed as growth inhibition by M7-A6 method
[18] = system: Staphylococcus aureus; experiment: Antibacterial activity against erythromycin, amikacin, clindamycin, ciprofloxacin, methicillin-resistant Staphylococcus aureus 15K/11 assessed as growth inhibition by M7-A6 method
[19] = system: Staphylococcus aureus; experiment: Antibacterial activity against penicillin, erythromycin, amikacin, clindamycin, ciprofloxacin, methicillin-resistant Staphylococcus aureus 573/12 assessed as growth inhibition by M7-A6 method
[20] = system: Staphylococcus aureus; experiment: Antibacterial activity against penicillin, erythromycin, amikacin, clindamycin, ciprofloxacin, methicillin-resistant Staphylococcus aureus 495/11 assessed as growth inhibition by M7-A6 method
[21] = system: Staphylococcus aureus; experiment: Antibacterial activity against penicillin, erythromycin, clindamycin, ciprofloxacin, methicillin-resistant Staphylococcus aureus 19K/11 assessed as growth inhibition by M7-A6 method

| SMILES | MIC [1] [µM] | MIC [2] [µM] | MIC [3] [µM] | MIC [4] [µM] | MIC [5] [µM] | MIC [6] [µM] | MIC [7] [µM] | MIC [8] [µM] | MIC [9] [µM] | MIC [10] [µM] | MIC [11] [µM] | MIC [12] [µM] | MIC [13] [µM] | MIC [14] [µM] | MIC [15] [µM] | MIC [16] [µM] | other results |
| --- | --- | --- | --- | --- | --- | --- | --- | --- | --- | --- | --- | --- | --- | --- | --- | --- | --- |
| COc1cc(C(=N)N)cc(OC)c1OCCOCCOc1c(OC)cc(C(=N)N)cc1OC | > 17000 | 51 (≈ 23.6 µg/mL) | 420 (≈ 194 µg/mL) | > 17000 | 17 (≈ 7.86 µg/mL) | > 17000 | 17000 (≈ 7840 µg/mL) | 17000 (≈ 7840 µg/mL) | > 17000 | 17000 (≈ 7840 µg/mL) | 210 (≈ 97.1 µg/mL) | > 17000 | 210 (≈ 97.1 µg/mL) | – | – | – | – |
| CN(CCOc1ccc(C(=N)N)cc1)CCOc1ccc(C(=N)N)cc1 | > 21100 | 1060 (≈ 377 µg/mL) | 2110 (≈ 750 µg/mL) | 10600 (≈ 3770 µg/mL) | 1060 (≈ 377 µg/mL) | > 21100 | 1060 (≈ 377 µg/mL) | 21100 (≈ 7500 µg/mL) | > 21100 | 21100 (≈ 7500 µg/mL) | 21100 (≈ 7500 µg/mL) | > 21100 | 10600 (≈ 3770 µg/mL) | – | – | – | – |
| N=C(N)c1ccc(OCCSCCOc2ccc(C(=N)N)cc2)cc1 | 140 (≈ 50.2 µg/mL) | 23 (≈ 8.24 µg/mL) | 140 (≈ 50.2 µg/mL) | 23 (≈ 8.24 µg/mL) | 4.6 (≈ 1.65 µg/mL) | 1740 (≈ 624 µg/mL) | 69.5 (≈ 24.9 µg/mL) | 140 (≈ 50.2 µg/mL) | 140 (≈ 50.2 µg/mL) | 580 (≈ 208 µg/mL) | 69.5 (≈ 24.9 µg/mL) | 2320 (≈ 832 µg/mL) | 140 (≈ 50.2 µg/mL) | 70 (≈ 25.1 µg/mL) | 290 (≈ 104 µg/mL) | 70 (≈ 25.1 µg/mL) | MIC [17]: 290 µM (≈ 104 µg/mL); MIC [18]: 1160 µM (≈ 416 µg/mL); MIC [19]: 290 µM (≈ 104 µg/mL); MIC [20]: 2320 µM (≈ 832 µg/mL); MIC [21]: 140 µM (≈ 50.2 µg/mL) |
| N=C(N)c1ccc(OCCOCCOc2ccc(C(=N)N)cc2)cc1 | > 22200 | 11 (≈ 3.77 µg/mL) | 550 (≈ 188 µg/mL) | 66 (≈ 22.6 µg/mL) | 4.4 (≈ 1.51 µg/mL) | 11100 (≈ 3790 µg/mL) | 550 (≈ 188 µg/mL) | 550 (≈ 188 µg/mL) | > 22200 | 550 (≈ 188 µg/mL) | 550 (≈ 188 µg/mL) | 11100 (≈ 3790 µg/mL) | 550 (≈ 188 µg/mL) | – | 11100 (≈ 3790 µg/mL) | > 22200 | – |

More lines, main results first:

| MIC [1] [µM] | MIC [2] [µM] | MIC [3] [µM] | MIC [4] [µM] | MIC [5] [µM] | MIC [6] [µM] | MIC [7] [µM] | MIC [8] [µM] | MIC [9] [µM] | MIC [10] [µM] | MIC [11] [µM] | MIC [12] [µM] | MIC [13] [µM] | MIC [14] [µM] | MIC [15] [µM] | MIC [16] [µM] | SMILES | other results |
| --- | --- | --- | --- | --- | --- | --- | --- | --- | --- | --- | --- | --- | --- | --- | --- | --- | --- |
| > 15200 | 1520 (≈ 723 µg/mL) | 1520 (≈ 723 µg/mL) | > 15200 | 760 (≈ 361 µg/mL) | > 15200 | 7610 (≈ 3620 µg/mL) | 7610 (≈ 3620 µg/mL) | > 15200 | 15200 (≈ 7240 µg/mL) | 7610 (≈ 3620 µg/mL) | > 15200 | 7610 (≈ 3620 µg/mL) | – | – | – | COc1cc(C(=N)N)cc(OC)c1OCCN(C)CCOc1c(OC)cc(C(=N)N)cc1OC | – |
| 120 (≈ 44 µg/mL) | 19.5 (≈ 7.15 µg/mL) | 98 (≈ 35.9 µg/mL) | 20 (≈ 7.33 µg/mL) | 3.9 (≈ 1.43 µg/mL) | > 19600 | 59 (≈ 21.6 µg/mL) | 9780 (≈ 3580 µg/mL) | 120 (≈ 44 µg/mL) | 9780 (≈ 3580 µg/mL) | 59 (≈ 21.6 µg/mL) | > 19600 | 120 (≈ 44 µg/mL) | 120 (≈ 44 µg/mL) | 240 (≈ 88 µg/mL) | 9780 (≈ 3580 µg/mL) | CN(CCCCCN(C)c1ccc(C(=N)N)cc1)c1ccc(C(=N)N)cc1 | – |
| > 12800 | 64 (≈ 39.5 µg/mL) | 320 (≈ 197 µg/mL) | > 12800 | 38 (≈ 23.4 µg/mL) | 6410 (≈ 3950 µg/mL) | 320 (≈ 197 µg/mL) | 6410 (≈ 3950 µg/mL) | > 12800 | 6410 (≈ 3950 µg/mL) | 320 (≈ 197 µg/mL) | 6410 (≈ 3950 µg/mL) | 320 (≈ 197 µg/mL) | – | > 12800 | > 12800 | COc1cc(C(=N)N)cc(OC)c1OCCN(CCOc1c(OC)cc(C(=N)N)cc1OC)S(=O)(=O)c1ccc(N)cc1 | – |
| 5920 (≈ 2020 µg/mL) | 71 (≈ 24.2 µg/mL) | 590 (≈ 201 µg/mL) | 71 (≈ 24.2 µg/mL) | 24 (≈ 8.17 µg/mL) | > 23700 | 590 (≈ 201 µg/mL) | 2370 (≈ 807 µg/mL) | 5920 (≈ 2020 µg/mL) | 11800 (≈ 4030 µg/mL) | 590 (≈ 201 µg/mL) | > 23700 | 590 (≈ 201 µg/mL) | 5920 (≈ 2020 µg/mL) | 11800 (≈ 4030 µg/mL) | 5920 (≈ 2020 µg/mL) | N=C(N)c1ccc(NCCOCCNc2ccc(C(=N)N)cc2)cc1 | – |

Source: ChEMBL document CHEMBL3286290, “In vitro screening of pentamidine analogs against bacterial and fungal strains” (Bioorg Med Chem Lett, 2014)
